According to patent US11679109B2, “SMARCA degraders and uses thereof” (Kymera Therapeutics, Inc., priority 2019, dated 2023):

Key:
Format in all cases: cell-based
SMARCA4 = target: T1, SMARCA4 (Homo sapiens, UniProt P51532); experiment: SMARCA4 Western blot MV4-11 degradation; settings: MV4-11 cells, 24 h; for DC50: read-out: SMARCA4 MSD MV411 degradation 24 h: Mean external-Abs DC50; for Dmax: read-out: SMARCA4 MSD MV411 degradation 24 h: average Dmax %
T1 construct: SMARCA2/SMARCA4 protein degradation selectivity in MV4-11 cells; endogenous in cells; host or cells: MV4-11
Procedure: Cells were seeded into 6-well plates (MV4-11: 4×10^6 cells/well/1 ml) and 1 ml of 2× compound solution was added into the well to make the final concentration and the plates were mixed well and incubated for 24 hours (No cytotoxicity was observed). The cell were collected with media and spun at 3000 rpm for 5 minutes. The supernatant was aspirated and the well and the cells were washed with cold PBS once and combined for centrifugation again; the supernatant aspirated again. 200 uL pre-chilled RIPA lysis buffer (Boston BioProducts BP-115D) with protease/phosphatase inhibitor (Roche 05892791001/Roche 04906837001) was directly added into the tube to lyze the cells for 20 minutes on ice. The cell lysate were collected into EP tubes and spun at 13000 rpm for 20 minutes and 72 uL supernatant was transferred to a fresh EP tube containing 18 uL of 5× loading buffer (Beyotime Bio P0015) to make the loading samples. The samples were heated to 100° C. for 10 minutes and cooled to RT and microcentrifuged. 20 uL of samples were loaded onto SDS-PAGE gel (Novex, WG1402BOX) and the gel was run at 80 V for 20 minutes and 120 V for 1.5 hours. The samples were electrotransfer to a NC membrane using wet-transfer method with 250 mA for 2.5 hours. The membrane was blocked with LICOR blocking buffer (LICOR, 927-50000) for 1 hour. The membrane was washed three times with TBST(CST #9997S), 5 minutes each. Incubation was performed with primary antibody prepared in blocking buffer with 0.1% Tween-20 (Solarbio, P8220) at 4° C. overnight (Anti-SMARCA2/BRM antibody (ab15597) 1:500; Anti-BRG1 antibody [EPR3912] (ab108318) 1:1000; Rabbit anti-Baf180 antibody [EPR15860] (Abeam,ab 196022) 1:1000; mouse anti-beta-Actin (8H10D10) (CST #3700) 1:10000). The membrane was washed three times with TBST, 5 minutes each. Incubation with secondary antibody was performed for 1 hour at RT (anti-rabbit IgG (Licor, 926-32211) 1:5000; anti-mouse IgG (LI-COR, 926-68070) 1:5000). The membrane was washed three times with 5 minutes each and lastly the LiCOR was read.
(§1) The letter codes for SMARCA2/4 degradation potency (DC50) include: A (<100 nM), B (100-500 nM), C (501-1000 nM), and D (>1000 nM). The letter codes for the percentage of SMARCA degradation after 24 hours (Dmax %) include: A (>90% degradation), B (>70-90% degradation), C (50-70% degradation), and D (<50% degradation).

SMARCA2 [1] = target: T2, SMARCA2 (Homo sapiens, UniProt P51531); experiment: SMARCA2 Western blot MV4-11 degradation; set-up: SMARCA2/SMARCA4 protein degradation selectivity in MV4-11 cells; endogenous in cells; host or cells: MV4-11; settings: MV4-11 cells, 24 h; for DC50: read-out: SMARCA2 MSD MV411 degradation 24 h: Mean external-Abs DC50; for Dmax: read-out: SMARCA2 MSD MV411 degradation 24 h: average Dmax %
SMARCA2 [2] = target: T2, SMARCA2; experiment: MSD SMARCA2 degradation in A549 cell line; settings: A549 cells, 24 h; for DC50: read-out: SMARCA2 MSD A549 degradation 24 h: Average external-Abs DC50
Procedure: Cells were seeded into 96-well plates (A549 cells: 2×10^4 cells/well/100 ul media) and incubated overnight. The next day, 200 nL compound were added into the intermediate plate with Echo (Labcyte 550) from source plate containing a 3-fold serial dilution from top concentration of 1 mM. The culture medium was changed with 80 ul of fresh medium and 80 uL of 2× compound solution was added into the well to make a final concentration of 1000 nM, 333.3 nM, 111.1 nM, 37.04 nM, 12.35 nM, 4.115 nM, 1.372 nM, 0.457 nM, 0.152 nM and 0 nM (DMSO). The wells were mixed and then incubated for 24 hours. The media was aspirated from the cultures and 60 ul pre-chilled PIPA lysis buffer (Boston BioProducts BP-115D) with protease/phosphatase inhibitor (Roche 05892791001/Roche 04906837001) was added into the well to lyze the cells for 20 minutes at 4° C. The MSD plate (L15XA) was coated with 40 uL cell lysate and incubated at 4° C. overnight. The next day, the plate was washed three times with TBST (CST #9997S), 150 ul/well. The MSD plates was blocked with 150 ul blocking buffer per well and shaked for 1 hr at RT, 600 rpm. The blocking buffer was 3% Blocker A (MSD, R93BA-4) in TBST. The MSD plate was washed three times with 150 uL/well of TBST and 25 ul/well of detection antibody (Rabbit anti-SMARCA2/BRM antibody, 100 μg/mL, ab223735) was added at final concentration of 1 ug/mL diluted in 1% Blocking buffer and shaken for 1 hour at RT, 600 rpm. The MSD plate was washed three times with 150 ul/well of TBST and 25 ul/well of SULFO-TAG anti-rabbit antibody (MSD, R32AB-1) was added at final concentration of 1 ug/ml diluted in 1% Blocking buffer and shaken for 1 hour at RT, 600 rpm. The MSD plate was washed three times with 150 uL/well of TBST and 150 ul/well of 2×MSD reading buffer diluted from 4× (MSD, R92TC-2) with water was added. Lastly, the MSD instrument was read.
as §1, with “SMARCA2” for “SMARCA2/4”

T1 sequence (P51532 whole entry): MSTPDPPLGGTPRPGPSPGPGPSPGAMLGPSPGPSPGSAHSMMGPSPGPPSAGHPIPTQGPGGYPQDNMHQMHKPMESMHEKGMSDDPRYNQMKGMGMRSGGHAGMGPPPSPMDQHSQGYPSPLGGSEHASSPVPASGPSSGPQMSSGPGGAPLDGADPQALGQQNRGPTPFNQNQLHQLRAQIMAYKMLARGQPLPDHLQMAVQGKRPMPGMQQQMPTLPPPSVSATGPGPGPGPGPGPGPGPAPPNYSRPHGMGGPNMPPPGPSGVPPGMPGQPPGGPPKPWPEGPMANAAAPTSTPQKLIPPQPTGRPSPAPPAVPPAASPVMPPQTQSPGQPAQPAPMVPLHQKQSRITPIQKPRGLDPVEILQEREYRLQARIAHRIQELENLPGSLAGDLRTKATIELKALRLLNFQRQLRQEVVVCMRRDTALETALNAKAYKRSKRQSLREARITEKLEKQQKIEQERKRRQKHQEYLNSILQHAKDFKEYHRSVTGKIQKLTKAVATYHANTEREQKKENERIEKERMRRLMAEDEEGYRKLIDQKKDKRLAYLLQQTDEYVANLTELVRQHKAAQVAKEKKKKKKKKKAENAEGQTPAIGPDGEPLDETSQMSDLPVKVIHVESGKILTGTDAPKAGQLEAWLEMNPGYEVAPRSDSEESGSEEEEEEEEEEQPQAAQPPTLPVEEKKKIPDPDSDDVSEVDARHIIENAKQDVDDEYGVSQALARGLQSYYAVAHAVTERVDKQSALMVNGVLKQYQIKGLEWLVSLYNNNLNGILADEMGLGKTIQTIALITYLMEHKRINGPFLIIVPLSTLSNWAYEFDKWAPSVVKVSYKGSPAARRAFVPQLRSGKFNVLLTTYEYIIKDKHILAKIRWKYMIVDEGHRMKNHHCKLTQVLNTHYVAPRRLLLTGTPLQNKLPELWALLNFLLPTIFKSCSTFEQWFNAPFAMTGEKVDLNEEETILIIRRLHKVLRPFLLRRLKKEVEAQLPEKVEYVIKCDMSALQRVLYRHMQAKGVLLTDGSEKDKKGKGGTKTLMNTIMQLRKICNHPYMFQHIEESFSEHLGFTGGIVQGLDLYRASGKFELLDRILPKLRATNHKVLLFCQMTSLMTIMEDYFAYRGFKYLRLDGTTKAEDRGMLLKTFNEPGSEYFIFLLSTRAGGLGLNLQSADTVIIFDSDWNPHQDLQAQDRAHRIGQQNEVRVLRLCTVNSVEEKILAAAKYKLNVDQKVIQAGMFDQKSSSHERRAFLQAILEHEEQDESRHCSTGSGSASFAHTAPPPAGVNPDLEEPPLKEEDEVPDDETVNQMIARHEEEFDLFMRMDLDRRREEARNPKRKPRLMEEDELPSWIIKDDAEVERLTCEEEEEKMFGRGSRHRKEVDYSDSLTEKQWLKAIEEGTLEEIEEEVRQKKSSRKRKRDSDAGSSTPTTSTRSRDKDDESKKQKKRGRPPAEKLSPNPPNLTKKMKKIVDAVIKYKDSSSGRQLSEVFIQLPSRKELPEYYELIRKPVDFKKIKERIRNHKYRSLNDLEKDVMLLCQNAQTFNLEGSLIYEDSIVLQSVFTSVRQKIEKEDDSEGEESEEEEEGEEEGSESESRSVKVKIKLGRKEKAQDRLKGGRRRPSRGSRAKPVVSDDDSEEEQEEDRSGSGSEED
T2 sequence (P51531 whole entry): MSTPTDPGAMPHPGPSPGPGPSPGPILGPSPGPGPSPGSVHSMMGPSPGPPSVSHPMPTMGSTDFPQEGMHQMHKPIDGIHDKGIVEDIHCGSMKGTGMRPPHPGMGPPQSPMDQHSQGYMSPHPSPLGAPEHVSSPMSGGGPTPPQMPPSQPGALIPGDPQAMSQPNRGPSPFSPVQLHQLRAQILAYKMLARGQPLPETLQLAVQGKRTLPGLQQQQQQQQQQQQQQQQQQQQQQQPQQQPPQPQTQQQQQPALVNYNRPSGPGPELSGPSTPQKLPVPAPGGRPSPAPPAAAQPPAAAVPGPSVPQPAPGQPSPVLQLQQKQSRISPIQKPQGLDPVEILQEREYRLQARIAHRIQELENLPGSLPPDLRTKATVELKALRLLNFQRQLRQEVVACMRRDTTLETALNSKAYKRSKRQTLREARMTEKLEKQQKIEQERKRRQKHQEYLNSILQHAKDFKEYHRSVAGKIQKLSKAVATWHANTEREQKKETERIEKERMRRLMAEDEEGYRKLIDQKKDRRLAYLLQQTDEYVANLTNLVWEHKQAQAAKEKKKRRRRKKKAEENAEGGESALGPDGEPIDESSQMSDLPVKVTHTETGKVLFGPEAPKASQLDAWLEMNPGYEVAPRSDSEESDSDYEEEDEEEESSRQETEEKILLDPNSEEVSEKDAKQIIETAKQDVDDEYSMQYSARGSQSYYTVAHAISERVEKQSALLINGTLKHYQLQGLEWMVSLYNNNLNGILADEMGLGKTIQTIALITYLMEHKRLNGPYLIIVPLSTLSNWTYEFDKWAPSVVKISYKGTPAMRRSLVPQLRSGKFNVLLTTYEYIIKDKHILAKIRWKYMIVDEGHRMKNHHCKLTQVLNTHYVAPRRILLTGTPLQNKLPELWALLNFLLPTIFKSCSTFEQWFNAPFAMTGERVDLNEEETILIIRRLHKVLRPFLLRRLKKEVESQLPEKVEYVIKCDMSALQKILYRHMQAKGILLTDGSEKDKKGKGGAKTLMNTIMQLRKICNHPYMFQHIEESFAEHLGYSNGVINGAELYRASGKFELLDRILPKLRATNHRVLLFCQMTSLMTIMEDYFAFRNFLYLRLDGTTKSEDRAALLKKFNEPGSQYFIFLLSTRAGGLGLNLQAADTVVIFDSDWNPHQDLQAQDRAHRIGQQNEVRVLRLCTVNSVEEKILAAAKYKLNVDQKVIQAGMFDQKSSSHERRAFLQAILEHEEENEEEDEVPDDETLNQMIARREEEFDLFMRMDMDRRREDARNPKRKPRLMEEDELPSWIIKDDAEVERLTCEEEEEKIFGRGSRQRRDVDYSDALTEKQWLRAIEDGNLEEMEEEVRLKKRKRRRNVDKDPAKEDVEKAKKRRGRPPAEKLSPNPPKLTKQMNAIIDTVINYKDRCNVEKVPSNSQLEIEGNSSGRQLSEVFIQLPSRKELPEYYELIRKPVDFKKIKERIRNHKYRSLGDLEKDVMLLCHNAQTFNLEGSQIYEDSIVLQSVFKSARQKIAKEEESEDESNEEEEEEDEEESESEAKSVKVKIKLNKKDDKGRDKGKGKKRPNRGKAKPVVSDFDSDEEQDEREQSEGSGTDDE

DC50 (SMARCA4) [nM]	Dmax (SMARCA4) [%]	DC50 (SMARCA2 [1]) [nM]	Dmax (SMARCA2 [1]) [%]	Dmax (SMARCA2 [2]) [%]	DC50 (SMARCA2 [2]) [nM]	Structure (SMILES)
> 1000	< 50	< 100	70 to 90	70 to 90	100 to 500	Cc1ncsc1-c1ccc(CNC(=O)[C@@H]2C[C@@H](O)CN2C(=O)[C@@H](NC(=O)[C@H]2CC3(C2)C[C@H](N2CCC(c4cnc(N5CCc6[nH]c7nnc(-c8ccccc8O)cc7c6[C@H]5C)nc4)CC2)C3)C(C)(C)C)cc1 (single isomer, unassigned) [I-40]
> 1000		< 100			100 to 500	Cc1ncsc1-c1ccc(CNC(=O)[C@@H]2C[C@@H](O)CN2C(=O)[C@@H](NC(=O)[C@H]2CC3(C2)C[C@H](N2CCC(c4cnc(N5CCc6[nH]c7nnc(-c8ccccc8O)cc7c6[C@H]5C)nc4)CC2)C3)C(C)(C)C)cc1 (single isomer, unassigned) [I-41]
> 1000	50 to 70	501 to 1000	50 to 70	< 50	> 1000	Cc1ncsc1-c1ccc(CNC(=O)[C@@H]2C[C@@H](O)CN2C(=O)[C@@H](NC(=O)C2CC3(C2)CC(N2CCC(c4ccnc(N5CCc6[nH]c7nnc(-c8ccccc8O)cc7c6[C@H]5C)n4)CC2)C3)C(C)(C)C)cc1 (stereo partly drawn) [I-13, (2S,4R)-4-hydroxy-1-((S)-2-(6-(4-(2-((R)-3-(2-hydroxyphenyl)-5-methyl-7,8-dihydro-5H-pyrido[3′,4′:4,5]pyrrolo[2,3-c]pyridazin-6(9H)-yl)pyrimidin-4-yl)piperidin-1-yl)spiro[3.3]heptane-2-carboxamido)-3,3-dimethylbutanoyl)-N-(4-(4-methylthiazol-5-yl)benzyl)pyrrolidine-2-carboxamide]
> 1000	50 to 70	< 100	70 to 90	70 to 90	100 to 500	Cc1ncsc1-c1ccc(CNC(=O)[C@@H]2C[C@@H](O)CN2C(=O)[C@@H](NC(=O)C2CC3(C2)CC(N2CCC(c4ccnc(N5CCc6[nH]c7nnc(-c8ccccc8O)cc7c6[C@@H]5C)n4)CC2)C3)C(C)(C)C)cc1 (stereo partly drawn) [I-14, (2S,4R)-4-hydroxy-1-((S)-2-(6-(4-(2-((S)-3-(2-hydroxyphenyl)-5-methyl-7,8-dihydro-5H-pyrido[3′,4′:4,5]pyrrolo[2,3-c]pyridazin-6(9H)-yl)pyrimidin-4-yl)piperidin-1-yl)spiro[3.3]heptane-2-carboxamido)-3,3-dimethylbutanoyl)-N-(4-(4-methylthiazol-5-yl)benzyl)pyrrolidine-2-carboxamide]
		100 to 500	50 to 70	70 to 90	100 to 500	Cc1ncsc1-c1ccc(CNC(=O)[C@@H]2C[C@@H](O)CN2C(=O)[C@@H](NC(=O)C2CC3(C2)CC(N2CCC(c4cnc(N5CCc6[nH]c7nnc(-c8ccccc8O)cc7c6[C@@H]5C)nc4)CC2)C3)C(C)(C)C)cc1 (stereo partly drawn) [I-37, (2S,4R)-4-hydroxy-1-((S)-2-(6-(4-(2-((S)-3-(2-hydroxyphenyl)-5-methyl-7,8-dihydro-5H-pyrido[3′,4′:4,5]pyrrolo[2,3-c]pyridazin-6(9H)-yl)pyrimidin-5-yl)piperidin-1-yl)spiro[3.3]heptane-2-carboxamido)-3,3-dimethylbutanoyl)-N-(4-(4-methylthiazol-5-yl)benzyl)pyrrolidine-2-carboxamide]
> 1000	< 50	< 100	70 to 90	> 90	< 100	Cc1ncsc1-c1ccc(CNC(=O)[C@@H]2C[C@@H](O)CN2C(=O)[C@@H](NC(=O)C2CC3(C2)CC(N2CCC(c4cnc(N5CCc6[nH]c7nnc(-c8ccccc8O)cc7c6[C@H]5C)nc4)CC2)C3)C(C)(C)C)cc1 (stereo partly drawn) [I-38, (2S,4R)-4-hydroxy-1-((S)-2-(6-(4-(2-((R)-3-(2-hydroxyphenyl)-5-methyl-7,8-dihydro-5H-pyrido[3′,4′:4,5]pyrrolo[2,3-c]pyridazin-6(9H)-yl)pyrimidin-5-yl)piperidin-1-yl)spiro[3.3]heptane-2-carboxamido)-3,3-dimethylbutanoyl)-N-(4-(4-methylthiazol-5-yl)benzyl)pyrrolidine-2-carboxamide]
